The source made the active and inactive calls. No cut-off for these calls is given here.
What was measured:
[1] = molecular target: Butyrophilin subfamily 3 member A1 (Homo sapiens) (UniProt O00481); test: Binding affinity to BTN3A1 in human PBMC-derived Vgamma9/Vdelta2 T cells assessed as induction of Vgamma9Vdelta2 T cells proliferation incubated for 3 days by gamma delta TCR/PE-CD3+ antibody staining based FACS analysis relative to HMBP analog; conditions: Vgamma9Vdelta2 T cell, time 3.0 day
K562 = test: Toxicity in human K562 cells assessed as reduction in cell viability at 100 uM after 72 hrs by Qb reagent based fluorescence assay; conditions: k562, 72 h
[2] = Prodrug conversion in human K562 cells assessed as conversion of monoacid in allylic aldehyde form at 100 uM measured after 1 hr by LC-MS analysis; assay type: ADME, cell-based; conditions: k562, 1 h
[3] = molecular target: Butyrophilin subfamily 3 member A1 (Homo sapiens) (UniProt O00481); test: Binding affinity to BTN3A1 in human K562 cells assessed as induction of Vgamma9/Vdelta2 T cell-mediated interferon gamma release preincubated for 4 hrs followed by compound washout and subsequent Vgamma9Vdelta2 T cell addition measured after 20 hrs by ELISA; assay type: cell-based
[4] = Prodrug conversion in human K562 cells assessed as conversion of monoacid in allylic alcohol form at 100 uM measured after 1 hr by LC-MS analysis; assay type: ADME, cell-based; conditions: k562, 1 h
[5] = Prodrug conversion in human K562 cells assessed as conversion of phosphonic monoacid in allylic aldehyde form at 100 uM measured after 1 hr by LC-MS analysis; assay type: ADME, cell-based; conditions: k562, 1 h
[6] = Prodrug conversion in human K562 cells assessed as conversion of phosphonic monoacid in allylic alcohol form at 100 uM measured after 1 hr by LC-MS analysis; assay type: ADME, cell-based; conditions: k562, 1 h
[7] = Prodrug conversion in human K562 cells assessed as glutathione conjugation at 100 uM measured after 1 hr by LC-MS analysis; assay type: ADME, cell-based; conditions: k562, 1 h
[8] = Prodrug conversion in human K562 cells assessed as dehydration by measuring DMAP monoacid formation at 100 uM measured after 1 hr by LC-MS analysis; assay type: ADME, cell-based; conditions: k562, 1 h
[9] = Prodrug conversion in human K562 cells assessed as conversion of free acid alcohol at 100 uM measured after 1 hr by LC-MS analysis; assay type: ADME, cell-based; conditions: k562, 1 h

Chain of Butyrophilin subfamily 3 member A1 (Homo sapiens) (O00481 30-513 limits assumed): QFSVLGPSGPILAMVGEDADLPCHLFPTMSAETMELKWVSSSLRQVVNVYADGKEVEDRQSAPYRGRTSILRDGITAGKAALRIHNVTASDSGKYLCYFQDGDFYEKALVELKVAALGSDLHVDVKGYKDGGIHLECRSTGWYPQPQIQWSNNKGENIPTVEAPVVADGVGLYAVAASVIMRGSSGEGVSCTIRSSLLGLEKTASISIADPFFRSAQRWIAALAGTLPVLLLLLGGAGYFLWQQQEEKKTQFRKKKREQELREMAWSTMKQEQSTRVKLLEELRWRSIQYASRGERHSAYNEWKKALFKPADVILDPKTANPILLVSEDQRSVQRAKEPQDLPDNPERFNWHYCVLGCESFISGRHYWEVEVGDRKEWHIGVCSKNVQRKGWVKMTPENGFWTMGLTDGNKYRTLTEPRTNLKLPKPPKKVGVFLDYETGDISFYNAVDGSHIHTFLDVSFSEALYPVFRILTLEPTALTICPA

Drug metabolism [5]	SMILES	fold change (FC) [1]	Activity (K562)	Drug metabolism [2]	other results
	C/C(C=O)=C\CCP(=O)(NCC(=O)OC(C)C)Oc1ccccc1 (stereo unspecified)	45			
	COC(=O)CNP(=O)(CC/C=C(\C)C=O)Oc1ccccc1 (stereo unspecified)	31	Toxic		
	CCOC(=O)CNP(=O)(CC/C=C(\C)C=O)Oc1ccccc1 (stereo unspecified)	56		Metabolite_Detected	
	C/C(C=O)=C\CCP(=O)(OCOC(=O)C(C)(C)C)Oc1ccc2ccc(=O)oc2c1 (stereo unspecified)	2			Activity [3]: Active
Metabolite_Notdetected	C/C(=C\CCP(=O)(OCOC(=O)C(C)(C)C)OCOC(=O)C(C)(C)C)CO			Metabolite_Notdetected	Drug metabolism [4]: Metabolite_Detected; Drug metabolism [6]: Metabolite_Detected
	CCOC(=O)CNP(=O)(CC/C=C(C)/C=N/O)Oc1ccccc1 (stereo unspecified)	> 2100		Metabolite_Detected	
Metabolite_Detected	C/C(C=O)=C\CCP(=O)(OCOC(=O)C(C)(C)C)OCOC(=O)C(C)(C)C	9	Toxic	Metabolite_Detected	Drug metabolism [7]: Metabolite_Detected; Drug metabolism [8]: Metabolite_Detected; Drug metabolism [9]: Metabolite_Detected

SMILES	Drug metabolism [5]	fold change (FC) [1]	Activity (K562)	Drug metabolism [2]	other results
C/C(C=O)=C\CCP(=O)(OCOC(=O)C(C)(C)C)Oc1ccc2ccccc2c1 (stereo unspecified)	Metabolite_Detected	2	Toxic	Metabolite_Detected	Drug metabolism [9]: Metabolite_Detected; Activity [3]: Active
